Key:
[1] = tested on: metastatic pancreatic cancer patients; experiment: Placebo-controlled, randomized phase 2 study plus gemcitabine; assay type: in vivo, human
Protocol: The primary endpoint was six month overall survival rate.
Key inclusion criteria were histologically or cytologically documented metastatic adenocarcinoma of the pancreas, age eighteen years or older, ECOG PS 0 or 1, adequate hematologic, hepatic, renal, and coagulation function, amylase and lipase≦2.0×ULN, adequately controlled type 1 or 2 diabetes (amended during protocol to fasting blood glucose<[…] only), fasting blood glucose≦[…], HbAlc<8%, and written informed consent.
Key exclusion criteria were uncontrolled cardiac disease and prior chemotherapy or radiation in the adjuvant or metastatic setting.

[2] = tested on: metastatic pancreatic cancer patients; experiment: Overall survival in baseline circulating biomarker subgroups of the phase 2 study; assay type: in vivo, human; design: Median OS: unit not given here
Source text: To establish the relationship between levels of these baseline markers and overall survival, a Cox proportional hazard model was used to calculate hazard ratios (HR) using normalized log transformed marker concentrations. This analysis tests the risk of death associated with a unit increase in the normalized log baseline biomarker and this risk is expressed as a hazard ratio. Because of the small sample size, it is difficult to dissect prognostic associations from relationships that are modified by treatment with ganitumab relative to placebo, i.e., predictive. This is because the addition of treatment effect adds a variable to the analysis that compromises the power of the test masking significant predictive relationships that may exist. However even a prognostic relationship identified in this analysis is important because it informs the hypothesized relationship between circulating bioavailable ligands and the adaptation of the tumor to IGF-1R dependent progression, and in turn sensitivity to inhibitors that block IGF-1R or downstream signaling pathways.
This allows a direct test of the predictive value of using these markers in a dichotomized way to predict OS in pancreatic cancer patients that are treated with inhibitors of IGF-1R.
To represent these relationships Kaplan-Maier plots were generated that show the OS for the high and low subgroups by plotting the fraction of patients in each sub-group that survive against time.

IGF-1R = IGF-1R (Homo sapiens, UniProt P08069); conditions: biphasic binding; read-out: KD of high affinity binding to IGF-1R; cited from earlier work
[3] = patients with measurable disease at baseline, plus gemcitabine
[4] = plus gemcitabine, conatumumab 10 mg/kg Q2W or ganitumab 12 mg/kg Q2W
[5] = plus gemcitabine, conatumumab 10 mg/kg Q2W or ganitumab 12 mg/kg Q2W, listed as conatumumab
[6] = versus placebo plus gemcitabine

Conatumumab: conatumumab (AMG 655), amino acid sequences in FIG. 19; given with gemcitabine in the phase 2 study
Best Overall Response: Confirmed CR - n (%) [1, 3]: 0 (0) n (%)
Best Overall Response: Confirmed PR - n (%) [1, 3]: 1 (3) n (%)
Best Overall Response: PD - n (%) [1, 3]: 12 (32) n (%)
Best Overall Response: SD (Includes Unconfirmed PR) - n (%) [1, 3]: 22 (58) n (%)
Best Overall Response: Unconfirmed PR - n (%) [1, 3]: 2 (5) n (%)
Best Overall Response: Unknown - n (%) [1, 3]: 3 (8) n (%)
Abdominal pain, grade 3-5 ([1]; plus gemcitabine): 7 (17) n (%)
Anemia, grade 3-5 ([1]; plus gemcitabine): 4 (10) n (%)
Aspartate Aminotransferase Increased, grade 3-5 ([1]; plus gemcitabine): 3 (7) n (%)
Deep Vein Thrombosis, grade 3-5 ([1]; plus gemcitabine): 4 (10) n (%)
Fatigue, grade 3-5 ([1]; plus gemcitabine): 5 (12) n (%)
Hyperbilirubinemia, grade 3-5 ([1]; plus gemcitabine): 2 (5) n (%)
Hyperglycemia, grade 3-5 ([1]; plus gemcitabine): 1 (2) n (%)
Hypotension, grade 3-5 ([1]; plus gemcitabine): 3 (7) n (%)
Neutropenia, grade 3-5 ([1]; plus gemcitabine): 9 (22) n (%)
Pulmonary Embolism, grade 3-5 ([1]; plus gemcitabine): 1 (2) n (%)
Thrombocytopenia, grade 3-5 ([1]; plus gemcitabine): 7 (17) n (%)
rate of SD+PR ([1]; plus gemcitabine): 61%
6-Month OS Rate (95% CI) [1, 4]: 59% (42, 73)
12-Month OS Rate (95% CI) [1, 4]: 20% (9, 34)
Median OS, Months (95% CI) [1, 4]: 7.5 (4.8, 10.0) Months
Median PFS, Months (95% CI) [1, 4]: 4.0 (3.3, 5.0) Months
6-Month OS Rate (95% CI) [1, 5]: 59%
Median PFS, Months (95% CI) [1, 5]: 4.0 Months
Number of Patients Reporting ≧1 AE, grade 3-5 ([1]; plus gemcitabine, conatumumab N = 41, ganitumab N = 40): 36 (88) n (%)
Stratified HR (95% CI), OS [1, 6]: 0.87 (0.53, 1.43)
Stratified HR (95% CI), PFS [1, 6]: 0.65 (0.41, 1.05)
Stratified HR (95% CI), PFS ([1]; versus placebo plus gemcitabine, listed as conatumumab): 0.65
Median OS ([2]; IGF-2 High (>=median)): 214
OS HR, treatment vs placebo ([2]; IGF-2 High (>=median)): 0.56
Median OS ([2]; IGF-2 Low (<median)): 263
OS HR, treatment vs placebo ([2]; IGF-2 Low (<median)): 1.08
Median OS ([2]; IGF-BP1 High (>=median)): 178
OS HR, treatment vs placebo ([2]; IGF-BP1 High (>=median)): 0.77
Median OS ([2]; IGF-BP1 Low (<median)): 254
OS HR, treatment vs placebo ([2]; IGF-BP1 Low (<median)): 0.68
Median OS ([2]; IGF-BP2 High (>=median)): 178
OS HR, treatment vs placebo ([2]; IGF-BP2 High (>=median)): 0.69
Median OS ([2]; IGF-BP2 Low (<median)): 244
OS HR, treatment vs placebo ([2]; IGF-BP2 Low (<median)): 0.91
Median OS ([2]; IGF-BP3 High (>=median)): 244
OS HR, treatment vs placebo ([2]; IGF-BP3 High (>=median)): 0.77
Median OS ([2]; IGF-BP3 Low (<median)): 129
OS HR, treatment vs placebo ([2]; IGF-BP3 Low (<median)): 0.86
Median OS ([2]; IGF-BP4 High (>=median)): 216
OS HR, treatment vs placebo ([2]; IGF-BP4 High (>=median)): 0.97
Median OS ([2]; IGF-BP4 Low (<median)): 216
OS HR, treatment vs placebo ([2]; IGF-BP4 Low (<median)): 0.86
Median OS ([2]; Total IGF-1 High (>=median)): 231
OS HR, treatment vs placebo ([2]; Total IGF-1 High (>=median)): 0.56
Median OS ([2]; Total IGF-1 Low (<median)): 178
OS HR, treatment vs placebo ([2]; Total IGF-1 Low (<median)): 0.53

IGF-2: insulin-like growth factor, ligand of IGF-1R
Kd (IGF-1R): ~0.2 nM
